# Assays:
# [1] = system: mucin MUC-5B secreted by F508del/F508del CF human airway epithelial cells; experiment: MUC-5B ELISA, CF airway epithelial cells cultured at the air-liquid interface (ALI); type: cell-based
# Method: FIG. 8: Measurement by ELISA assay of the mucin MUC-5B secreted by F508del/F508del CF human airway epithelial cells cultured at the air-liquid interface (ALI). Airway epithelial cells were seeded in bi-compartmental chambers and cultured in liquid-liquid condition until confluence was reached. At confluence, culture medium from the upper chamber was removed to create an air-liquid interface (ALI) that will favor epithelial cell differentiation. From the ALI creation, the different treatments (15-45 kDa sodium-hyaluronic acid (HA-Na 15-45 kDa) (ARD—Pomacle—France—as prepared according to WO2004050187), 15-30 kDa sodium-hyaluronic acid (HA-Na 15-30 kDa) (Sigma Aldrich), or 30-50 kDa sodium-hyaluronic acid (HA-Na 30-50 kDa) (Sigma Aldrich)) were added at 1 mg/mL to the culture medium in the basal chamber. The culture medium was renewed three times a week. At ALI day 15 and ALI Day 25, the culture in the upper chamber was rinsed with PBS then, a small volume of fresh medium without any treatment was placed at the contact of the apical part of the epithelium. After a 4 h-period, this apical culture medium was collected and the MUC-5B content was determined by ELISA assay. n=3 different F508del/F508del CF patients. p<0.001 (***); p<0.01 (**); p<0.05 (*). ns: non-significant.
# FIG. 9: Measurement by ELISA assay of the mucin MUC-5B secreted by F508del/F508del CF human airway epithelial cells cultured at the air-liquid interface (ALI). Airway epithelial cells were seeded in bi-compartmental chambers and cultured in liquid-liquid condition until confluence was reached. At confluence, culture medium from the upper chamber was removed to create an air-liquid interface (ALI) that will favor epithelial cell differentiation. From the ALI creation, the different treatments (15-45 kDa sodium-hyaluronic acid (HA-Na 15-45 kDa) (ARD—Pomacle—France—as prepared according to WO2004050187), 15-45 kDa calcium-hyaluronic acid (HA-Ca 15-45 kDa; ARD), or 15-45 kDa potassium-hyaluronic acid (HA-K 15-45 kDa; ARD) were added at 1 mg/mL to the culture medium in the basal chamber. The culture medium was renewed three times a week. At ALI day 15 and ALI Day 25, the culture in the upper chamber was rinsed with PBS then, a small volume of fresh medium without any treatment was placed at the contact of the apical part of the epithelium. After a 4 h-period, this apical culture medium was collected and the MUC-5B content was determined by ELISA assay. n=3 different F508del/F508del CF patients. p<0.001 (***); p<0.01 (**); p<0.05 (*). ns: non-significant.
# FIG. 10: Measurement by ELISA assay of the mucin MUC-5B secreted by F508del/F508del CF human airway epithelial cells cultured at the air-liquid interface (ALI). Airway epithelial cells were seeded in bi-compartmental chambers and cultured in liquid-liquid condition until confluence was reached. At confluence, culture medium from the upper chamber was removed to create an air-liquid interface (ALI) that will favor epithelial cell differentiation. From the ALI creation, 15-45 kDa sodium-hyaluronic acid (HA-Na 15-45 kDa) (ARD—Pomacle—France—as prepared according to WO2004050187) was added at 2 mg/mL, 1 mg/mL or 0.5 mg/mL to the culture medium in the basal chamber. The culture medium was renewed three times a week. At ALI day 15 and ALI Day 25, the culture in the upper chamber was rinsed with PBS then, a small volume of fresh medium without any treatment was placed at the contact of the apical part of the epithelium. After a 4 h-period, this apical culture medium was collected and the MUC-5B content was determined by ELISA assay. n=3 different F508del/F508del CF patients. p<0.001 (***); p<0.01 (**); p<0.05 (*). ns: non-significant.
# [2] = system: IL-8 secreted by non-CF human airway epithelial cells; experiment: IL-8 ELISA, non-CF airway epithelial cells cultured at the air-liquid interface (ALI); type: cell-based; conditions: FIG. 11, 14; 1 mg/mL from ALI creation, ALI day 15, vs control condition; n=1 non-CF patient
# Method: FIG. 11: Measurement by ELISA assay of the pro-inflammatory chemokine IL-8 secreted by non-CF human airway epithelial cells cultured at the air-liquid interface (ALI). Airway epithelial cells were seeded in bi-compartmental chambers and cultured in liquid-liquid condition until confluence was reached. At confluence, culture medium from the upper chamber was removed to create an air-liquid interface (ALI) that will favor epithelial cell differentiation. From the ALI creation, the different treatments (15-45 kDa sodium-hyaluronic acid (HA-Na 15-45 kDa) (ARD—Pomacle—France—as prepared according to WO2004050187), 15-30 kDa sodium-hyaluronic acid (HA-Na 15-30 kDa) (Sigma Aldrich), or 30-50 kDa sodium-hyaluronic acid (HA-Na 30-50 kDa) (Sigma Aldrich)) were added at 1 mg/mL to the culture medium in the basal chamber. The culture medium was renewed three times a week. At ALI day 15, the culture medium was replaced by fresh medium without any treatment. After a 4 h-period, this culture medium was collected and the IL-8 content was determined by ELISA assay. n=1 non-CF patient. p<0.001 (***); p<0.01 (**); p<0.05 (*). ns: non-significant.
# FIG. 14: Measurement by ELISA assay of the pro-inflammatory chemokine IL-8 secreted by non-CF human airway epithelial cells cultured at the air-liquid interface (ALI). Airway epithelial cells were seeded in bi-compartmental chambers and cultured in liquid-liquid condition until confluence was reached. At confluence, culture medium from the upper chamber was removed to create an air-liquid interface (ALI) that will favor epithelial cell differentiation. From the ALI creation, the different treatments (15-45 kDa sodium-hyaluronic acid (HA-Na 15-45 kDa) (ARD—Pomacle—France—as prepared according to WO2004050187), 15-45 kDa calcium-hyaluronic acid (HA-Ca 15-45 kDa; ARD) or 15-45 kDa potassium-hyaluronic acid (HA-K 15-45 kDa; ARD) were added at 1 mg/mL to the culture medium in the basal chamber. The culture medium was renewed three times a week. At ALI day 15, the culture medium was replaced by fresh medium without any treatment. After a for 4 h-period, this culture medium was collected and the IL-8 content was determined by ELISA assay. n=1 non-CF patient. p<0.001 (***); p<0.01 (**); p<0.05 (*). ns: non-significant.
# [3] = 1 mg/mL, ALI day 15, vs control condition, n=3 CF patients
# [4] = 1 mg/mL, ALI day 25, vs control condition, n=3 CF patients
Substance,"decrease in MUC-5B secretion [1, 3]","decrease in MUC-5B secretion [1, 4]",decrease in IL-8 secretion [2],"decrease in MUC-5B secretion ([1]; FIG. 10, 0.5 mg/mL, ALI day 15 and ALI day 25)","decrease in MUC-5B secretion ([1]; FIG. 10, 2 mg/mL, ALI day 15)","decrease in MUC-5B secretion ([1]; FIG. 10, 2 mg/mL, ALI day 25)"
15-30 kDa sodium-hyaluronic acid [HA-Na 15-30 kDa],14.1%,17.3%,60.6%,–,–,–
15-45 kDa calcium-hyaluronic acid [HA-Ca 15-45 kDa],85.5%,58.8%,70.5%,–,–,–
15-45 kDa potassium-hyaluronic acid [HA-K 15-45 kDa],34.7%,–,57.9%,–,–,–
15-45 kDa sodium-hyaluronic acid [HA-Na 15-45 kDa],37.3%,33.2%,69.7%,does not have any effect,97.9%,81.2%
30-50 kDa sodium-hyaluronic acid [HA-Na 30-50 kDa],68.7%,67.1%,66.6%,–,–,–
